Test results from patent US20100055198A1, “HARD SURFACE CLEANING AND DISINFECTING COMPOSITION” (Arkema Inc., priority 2007, published 2010).

Assays:
[1] = test system: gram-positive and gram-negative bacteria; assay: Disinfection properties overall (AOAC Use-Dilution); type: cell-based; conditions: low concentration (e.g. 3%), pH 7
Procedure: (§1) The testing was performed in accordance with the protocols outlined in “Use-dilution Method”, Protocols 955.14, 955.15 and 964.02 described in Chapter 6 of “Official Methods of Analysis”, 16th Edition, of the Association of Official Analytical Chemists; “Germicidal and Detergent Sanitizing Action of Disinfectants”, 960.09 described in Chapter 6 of “Official Methods of Analysis”, 15th Edition, of the Association of Official Analytical Chemists; or American Society for Testing and Materials (ASTM) E 1054-91 the contents of which are herein incorporated by reference. This test is also commonly referred to as the “AOAC Use-Dilution Test Method”. Testing was conducted starting with 10^5 to 10^6 CFU/ml bacteria concentration, 10 ml of the cleaning composition described in each example and test protocol outlined in the “AOAC Use-dilution Method”.

[2] = test system: P. aeruginosa; assay: AOAC Use-Dilution disinfection test, P. aeruginosa; type: cell-based, Pseudomonas aeruginosa
Procedure: as §1

[3] = test system: S. aureus; assay: AOAC Use-Dilution disinfection test, S. aureus; type: cell-based, Staphylococcus aureus
Procedure: as §1

[4] = test system: S. choleraesuis; assay: AOAC Use-Dilution disinfection test, S. choleraesuis; type: cell-based, Salmonella choleraesuis
Procedure: as §1

[5] = pH 4.4, time 0 min (starting count)
[6] = pH 7.7, time 0 min (starting count)

Molecule | disinfectant property, in words [1] | P. aeruginosa (CFU/ml) [2, 5] | P. aeruginosa (CFU/ml) [2, 6] | killing gram positive bacteria (Staphylococus aureus), in words ([3]; acidic pH) | killing gram positive bacteria (Staphylococus aureus), in words ([3]; neutral pH) | S. aureus (CFU/ml) [3, 5] | S. aureus (CFU/ml) ([3]; pH 4.4, time 5 min, average from two replicates) | S. aureus (CFU/ml) [3, 6] | S. aureus (CFU/ml) ([3]; pH 7.7, time 5 min) | S. choleraesuis (CFU/ml) [4, 5] | S. choleraesuis (CFU/ml) [4, 6]
CC(C)O [isopropanol, Isopropanol] | slight disinfectant property | – | – | – | – | – | – | – | – | – | –
hydrogen peroxide [3% H2O2] | – | 1.7 × 10^5 CFU/ml | 1.5 × 10^5 CFU/ml | not effective | not effective | 1.6 × 10^5 CFU/ml | 4.3 × 10^3 *^1 CFU/ml | 1.3 × 10^5 CFU/ml | 6.0 × 10^2 CFU/ml | 2.9 × 10^5 CFU/ml | 2.4 × 10^5 CFU/ml
